In US8044082B2, “N-phenylacetamide inhibitors of the enzyme SOAT-1 and pharmaceutical/cosmetic compositions comprised thereof” (Galderma Research & Development, priority 2007, dated 2011):

Key:
enzyme ACAT-1 = biological target: T1, enzyme ACAT-1 (Homo sapiens, UniProt P35610); assay: ACAT-1 (SOAT-1) inhibition test in HepG2 cells with NBD-cholesterol fluorescence; format: cell-based; conditions: NBD-cholesterol 1 μg/ml, incubation 6 h at 37° C., fluorescence excitation 490 nm / emission 540 nm
T1 sequence (P35610 1-550): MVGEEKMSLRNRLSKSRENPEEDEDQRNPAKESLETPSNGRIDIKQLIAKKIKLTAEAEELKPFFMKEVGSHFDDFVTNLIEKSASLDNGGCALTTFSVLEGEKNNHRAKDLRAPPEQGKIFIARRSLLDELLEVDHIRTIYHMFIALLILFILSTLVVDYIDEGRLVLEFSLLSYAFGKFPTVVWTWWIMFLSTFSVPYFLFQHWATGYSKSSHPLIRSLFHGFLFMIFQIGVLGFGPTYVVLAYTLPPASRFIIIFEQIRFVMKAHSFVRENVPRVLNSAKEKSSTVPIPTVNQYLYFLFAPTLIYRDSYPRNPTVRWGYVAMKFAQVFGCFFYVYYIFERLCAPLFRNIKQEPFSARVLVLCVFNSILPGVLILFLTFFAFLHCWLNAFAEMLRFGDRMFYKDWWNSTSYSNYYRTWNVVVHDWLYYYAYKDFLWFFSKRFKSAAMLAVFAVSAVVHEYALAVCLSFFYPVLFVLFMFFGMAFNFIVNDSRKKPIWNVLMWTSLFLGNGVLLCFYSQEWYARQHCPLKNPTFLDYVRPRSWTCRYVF
Method: The compounds (I) according to the invention, as well as their pharmaceutically acceptable salts, solvates and/or hydrates, have inhibitory properties on the enzyme SOAT-1. This inhibitory activity on the enzyme SOAT-1 is measured according to a primary enzymatic test HepG2, as described in Example 64.
The compounds of formula (I) according to the invention have been subjected to a test allowing their inhibitory action with respect to the enzyme ACAT-1 to be evaluated inspired by the following publication: “Identification of ACAT1- and ACAT2-specific inhibitors using a novel, cell-based fluorescence assay: individual ACAT uniqueness”, J. Lipid Res. (2004) vol. 45, pages 378-386.
The principle of this test is based on the employment of NBD-cholesterol, an analogue of cholesterol whose fluorescence depends on its environment. When this is present in a polar environment, it is weakly fluorescent although in a nonpolar environment it is strongly fluorescent. Free NBD-cholesterol locates itself in the cell membranes and is weakly fluorescent in this polar environment. When the NBD-cholesterol is esterified by ACAT, the ester of NBD-cholesterol locates itself in the nonpolar lipid droplets and is in that case strongly fluorescent.
The method below is applied: The HepG2 cells are incubated in the presence of NBD-cholesterol (1 μg/ml) and of the compound of formula (I) to be tested in black 96-well plates with a transparent base at a rate of 30 000 cells per well. After incubation for 6 h at 37° C., under 5% CO2, the medium is eliminated by turning over and the cells are washed with 2 times 100 μl of PBS. After addition of 50 μl of lysis buffer (NaPO4 10 mM, Igepal 1%), the plates are stirred for 5 min and read in fluorescence (excitation 490 nm, emission 540 nm) on a FUSION apparatus (Perkin-Elmer).

SMILES | IC50 (enzyme ACAT-1) [nM] | melting point [°C]
Cc1ccc(N2C(=O)N(CC(=O)Nc3c(C)cc(C)cc3C)C(=O)C23CCCCC3)cc1 [compound (I.45), 2-(2,4-Dioxo-1-p-tolyl-1,3-diazaspiro[4.5]dec-3-yl)-N-(2,4,6-trimethylphenyl)acetamide] | – | 266
Cc1ccc(N2C(=O)N(CC(=O)Nc3c(C)cccc3Cl)C(=O)C23CCCCC3)cc1 [compound (I.46), N-(2-Chloro-6-methylphenyl)-2-(2,4-dioxo-1-p-tolyl-1,3-diazaspiro[4.5]dec-3-yl)acetamide] | 5.1 | 244
CCc1cccc(CC)c1NC(=O)CN1C(=O)N(c2ccc(C)cc2)C2(CCCCC2)C1=O [compound (I.48), N-(2,6-Diethylphenyl)-2-(2,4-dioxo-1-p-tolyl-1,3-diazaspiro[4.5]dec-3-yl)-acetamide] | – | 214
CCc1cc(C)cc(CC)c1NC(=O)CN1C(=O)N(c2ccc(C)cc2)C2(CCCCC2)C1=O [compound (I.49), N-(2,6-Diethyl-4-methylphenyl)-2-(2,4-dioxo-1-p-tolyl-1,3-diazaspiro[4.5]dec-3-yl)acetamide] | – | 223
Cc1ccc(N2C(=O)N(CC(=O)Nc3c(C)cc(C)cc3Cl)C(=O)C23CCCCC3)cc1 [compound (I.50), N-(2-Chloro-4,6-dimethylphenyl)-2-(2,4-dioxo-1-p-tolyl-1,3-diazaspiro[4.5]dec-3-yl)acetamide] | – | 248
CCc1cccc(CC)c1NC(=O)CN1C(=O)N(CCc2ccccc2)C2(CCCCC2)C1=O [compound (I.51), N-(2,6-Diethylphenyl)-2-(2,4-dioxo-1-phenethyl-1,3-diazaspiro[4.5]dec-3-yl)acetamide] | – | 178
Cc1ccc(N2C(=O)N(CC(=O)Nc3c(C)cc(C)cc3Br)C(=O)C23CCCCC3)cc1 [compound (I.52), N-(2-Bromo-4,6-dimethylphenyl)-2-(2,4-dioxo-1-p-tolyl-1,3-diazaspiro[4.5]dec-3-yl)acetamide] | 5.3 | 245
Cc1ccc(N2C(=O)N(CC(=O)Nc3c(C)cccc3C(C)(C)C)C(=O)C23CCCCC3)cc1 [compound (I.53), N-(2-tert-Butyl-6-methylphenyl)-2-(2,4-dioxo-1-p-tolyl-1,3-diazaspiro[4.5]dec-3-yl)acetamide] | – | 120
CCc1ccc(N2C(=O)N(CC(=O)Nc3c(CC)cccc3CC)C(=O)C23CCCCC3)cc1 [compound (I.54), N-(2,6-Diethylphenyl)-2-[1-(4-ethylphenyl)-2,4-dioxo-1,3-diazaspiro[4.5]dec-3-yl]acetamide] | – | 188
CCCN1C(=O)N(CC(=O)Nc2c(CC)cccc2CC)C(=O)C12CCCCC2 [compound (I.55), N-(2,6-Diethylphenyl)-2-(2,4-dioxo-1-propyl-1,3-diazaspiro[4.5]dec-3-yl)acetamide] | – | 222
CCCCc1ccc(N2C(=O)N(CC(=O)Nc3c(CC)cccc3CC)C(=O)C23CCCCC3)cc1 [compound (I.56), 2-[1-(4-Butylphenyl)-2,4-dioxo-1,3-diazaspiro[4.5]dec-3-yl]-N-(2,6-diethyl-phenyl)acetamide] | – | 171
CCc1ccc(N2C(=O)N(CC(=O)Nc3c(CC)cccc3CC)C(=O)C23CCCC3)cc1 [compound (I.57), N-(2,6-Diethylphenyl)-2-[1-(4-ethylphenyl)-2,4-dioxo-1,3-diazaspiro[4.4]non-3-yl]acetamide] | – | 191
CCCCCCCN1C(=O)N(CC(=O)Nc2c(CC)cccc2CC)C(=O)C12CCCCC2 [compound (I.58), N-(2,6-Diethylphenyl)-2-(1-heptyl-2,4-dioxo-1,3-diazaspiro[4.5]dec-3-yl)acetamide] | – | 126
CCc1cccc(CC)c1NC(=O)CN1C(=O)N(CC(C)C)C2(CCCCC2)C1=O [compound (I.59), N-(2,6-Diethylphenyl)-2-(1-isobutyl-2,4-dioxo-1,3-diazaspiro[4.5]dec-3-yl)acetamide] | – | 209
CCc1cccc(CC)c1NC(=O)CN1C(=O)N(c2ccc(Cl)cc2)C2(CCCC2)C1=O [compound (I.61), 2-[1-(4-Chlorophenyl)-2,4-dioxo-1,3-diazaspiro[4.4]non-3-yl]-N-(2,6-diethylphenyl)acetamide] | 2.7 | 218
CCc1cccc(CC)c1NC(=O)CN1C(=O)N(c2ccc(OCc3ccccc3)cc2)C2(CCCCC2)C1=O [compound (I.62), 2-[1-(4-Benzyloxyphenyl)-2,4-dioxo-1,3-diazaspiro[4.5]dec-3-yl]-N-(2,6-di-ethylphenyl)acetamide] | – | 184
CCc1cccc(CC)c1NC(=O)CN1C(=O)N(Cc2ccccc2)C2(CCCCC2)C1=O [compound (I.63), 2-(1-Benzyl-2,4-dioxo-1,3-diazaspiro[4.5]dec-3-yl)-N-(2,6-diethylphenyl)-acetamide] | – | 179

Next, values leading:

IC50 (enzyme ACAT-1) [nM] | melting point [°C] | SMILES
3.2 | – | CC(C)c1cccc(C(C)C)c1NC(=O)CN1C(=O)N(c2ccccc2)C2(CCCC2)C1=O [compound (I.1), N-(2,6-Diisopropylphenyl)-2-(2,4-dioxo-1-phenyl-1,3-diazaspiro[4.4]non-3-yl)acetamide]
0.8 | 258 | CC(C)c1cccc(C(C)C)c1NC(=O)CN1C(=O)N(c2ccc(F)cc2)C2(CCCCC2)C1=O [compound (I.7), N-(2,6-Diisopropylphenyl)-2-[1-(4-fluorophenyl)-2,4-dioxo-1,3-diazaspiro-[4.5]dec-3-yl]acetamide]
0.2 | 234 | Cc1ccc(N2C(=O)N(CC(=O)Nc3c(C(C)C)cccc3C(C)C)C(=O)C23CCCCC3)cc1 [compound (I.10), N-(2,6-Diisopropylphenyl)-2-(2,4-dioxo-1-p-tolyl-1,3-diazaspiro[4.5]dec-3-yl)acetamide]
4.8 | 236 | CC(C)c1cccc(C(C)C)c1NC(=O)CN1C(=O)N(C2CCCCC2)C2(CCCCC2)C1=O [compound (I.14), 2-[1-Cyclohexyl-2,4-dioxo-1,3-diazaspiro[4.5]dec-3-yl)-N-(2,6-diisopropyl-phenyl)acetamide]
5.6 | 225 | CC(C)c1cccc(C(C)C)c1NC(=O)CN1C(=O)N(CCc2ccccc2)C2(CCCCC2)C1=O [compound (I.23), N-(2,6-Diisopropylphenyl)-2-(2,4-dioxo-1-phenethyl-1,3-diazaspiro[4.5]dec-3-yl)acetamide]
2.5 | 241 | CCCCN1C(=O)N(CC(=O)Nc2c(C(C)C)cccc2C(C)C)C(=O)C12CCCCC2 [compound (I.26), 2-(1-Butyl-2,4-dioxo-1,3-diazaspiro[4.5]dec-3-yl)-N-(2,6-diisopropylphenyl)acetamide]
0.7 | 174 | CCC1(CC)C(=O)N(CC(=O)Nc2c(C(C)C)cccc2C(C)C)C(=O)N1c1ccc(C)cc1 [compound (I.39), 2-(4,4-Diethyl-2,5-dioxo-3-p-tolylimidazolidin-1-yl)-N-(2,6-diisopropylphenyl)acetamide]
– | 195 | Cc1ccc(N2C(=O)N(CC(=O)Nc3c(C)cccc3C(C)C)C(=O)C23CCCCC3)cc1 [compound (I.47), 2-(2,4-Dioxo-1-p-tolyl-1,3-diazaspiro[4.5]dec-3-yl)-N-(2-isopropyl-6-methylphenyl)acetamide]
– | 118 | CC(C)c1cccc(C(C)C)c1NC(=O)CN1C(=O)N(c2ccc(OCc3ccccc3)cc2)C2(CCCCC2)C1=O [compound (I.60), 2-[1-(4-Benzyloxyphenyl)-2,4-dioxo-1,3-diazaspiro[4.5]dec-3-yl]-N-(2,6-di-isopropylphenyl)acetamide]
